Experimental data: patent publication US20230295166A1, “ATR INHIBITORS AND USES THEREOF” (ANTENGENE DISCOVERY LIMITED, priority 2020, published 2023)

test system: LoVo (CCL-229) cells; assay: Tumor cell anti-proliferation assay (CTG assay); format: cell-based; conditions: LoVo human colorectal cancer cells, 96 h, CellTiter-Glo
Experimental: Assay 2: Tumor Cell Anti-proliferation Assay (CTG Assay)
Human colorectal cancer cells HT-29 (HTB-38) and LoVo (CCL-229) were selected for the CTG assay, the two cell lines were originally obtained from the American Type Culture Collection (ATCC). FBS and appropriate additives were added into base medium to prepare complete medium, then the cell layer was briefly rinsed with 0.25% (w/v) Trypsin-0.038% (w/v) EDTA solution to remove all traces of serum that contains trypsin inhibitor. After that, appropriate volume of Trypsin-EDTA solution was added to flask and cells under an inverted microscope were observed until cell layer was dispersed. At last, appropriate volume of complete growth medium was added and cells were aspirated by gently pipetting. Numbers were collected and counted with Vi-cell XR and cell density was adjusted, cells were seeded into 96-well opaque-walled clear bottom tissue-culture treated plates in the CO2 incubator for 20-24 hours. All the test compounds were at 10 mM in DMSO. Compounds were then added to the cell media in 3-fold serial dilutions, the final DMSO concentration was 0.5%. Plates were incubated for 96 h at 5% CO2, 37° C. Before the measurement, the appropriate volume of CellTiter-Glo Buffer was transferred into the amber bottle containing CellTiter-Glo substrate to reconstitute the lyophilized enzyme/substrate mixture, mixed gently, thereby forming the CellTiter-Glo Reagent (Promega Cat. No. G7573). The plate and its contents were equilibrated to room temperature for approximately 30 minutes, then 100 μL of CellTiter-Glo Reagent was added to the assay plate, the contents were mixed for 2 minutes on an orbital shaker to induce cell lysis, incubated at room temperature for 10 minutes to stabilize luminescent signal. At last the clear bottom was pasted with white back seal and luminescence was recorded with Enspire. IC50 and GI50 values were calculated with XLFit curve fitting software using 4 Parameter Logistic Model Y=Bottom+(Top−Bottom)/(1+(IC50/X)^HillSlope).

SMILES | IC50 [nM]
Cc1cc(-c2nc(C)c3c(-c4ccnn4C)cc(N4CC5CCC(C4)O5)nn23)[nH]n1 [Example 66, 3-[5-methyl-4-(1-methyl-1H-pyrazol-5-yl)-7-(3-methyl-1H-pyrazol-5-yl)imidazo[1,5-b]pyridazin-2-yl]-8-oxa-3-azabicyclo[3.2.1]octane] | 69
Cc1nnn(C)c1-c1cc(N2CCOC[C@H]2C)nc2c(-c3ccn[nH]3)nsc12 [Example 38, (R)-4-(7-(1,4-dimethyl-1H-1,2,3-triazol-5-yl)-3-(1H-pyrazol-5-yl)isothiazolo[4,5-b]pyridin-5-yl)-3-methylmorpholine] | 40.4
Cc1cc(-c2nsc3c(-c4c(C)noc4C)cc(N4CCOC[C@H]4C)nc23)[nH]n1 [Example 73, (R)-4-(7-(3,5-dimethylisoxazol-4-yl)-3-(3-methyl-1H-pyrazol-5-yl)isothiazolo[4,5-b]pyridin-5-yl)-3-methylmorpholine] | 41
Cc1cc(-c2nsc3c(C4(O)CCCC4)cc(N4CCOC[C@H]4C)nc23)[nH]n1 [Example 106, (R)-1-(3-(3-methyl-1H-pyrazol-5-yl)-5-(3-methylmorpholino)isothiazolo[4,5-b]pyridin-7-yl)cyclopentan-1-ol] | 46
Cc1cc(-c2ncc3c(-c4c(C)nnn4C)cc(N4CCOC[C@H]4C)nn23)[nH]n1 [Example 35, (3R)-4-(4-(1,4-dimethyl-1H-1,2,3-triazol-5-yl)-7-(3-methyl-1H-pyrazol-5-yl)imidazo[1,5-b]pyridazin-2-yl)-3-methylmorpholine] | 129
Cc1cc(-c2nsc3c(N4CCCCS4(=O)=O)cc(N4CCOC[C@H]4C)nc23)[nH]n1 [Example 82, 2-[3-(3-methyl-1H-pyrazol-5-yl)-5-[(3R)-3-methylmorpholin-4-yl]-[1,2]thiazolo[4,5-b]pyridin-7-yl]-1λ^6,2-thiazinane-1,1-dione] | 20
Cc1cc(-c2nsc3c(-c4ccnn4C)cc(N4CCOC[C@H]4C)nc23)[nH]n1 [Example 37, (R)-3-methyl-4-(7-(1-methyl-1H-pyrazol-5-yl)-3-(3-methyl-1H-pyrazol-5-yl)isothiazolo[4,5-b]pyridin-5-yl)morpholine] | 36.6

Now those with a lower IC50, led by results:

IC50 [nM] | SMILES
9 | Cc1cc(-c2nsc3c(C4(CO)CCOCC4)cc(N4CCOC[C@H]4C)nc23)[nH]n1 [Example 105, (R)-(4-(3-(3-methyl-1H-pyrazol-5-yl)-5-(3-methylmorpholino)isothiazolo[4,5-b]pyridin-7-yl)tetrahydro-2H-pyran-4-yl)methanol]
2 | C[C@@H]1COCCN1c1cc(C2(O)CCCCC2)c2snc(-c3ccn[nH]3)c2n1 [Example 91, (R)-1-(5-(3-methylmorpholino)-3-(1H-pyrazol-5-yl)isothiazolo[4,5-b]pyridin-7-yl)cyclohexan-1-ol]
5 | C[C@@H]1COCCN1c1cc(C2(C(N)=O)CCCC2)c2snc(-c3ccn[nH]3)c2n1 [Example 90, 1-{5-[(3R)-3-methylmorpholin-4-yl]-3-(1H-pyrazol-5-yl)-[1,2]thiazolo[4,5-b]pyridin-7-yl}cyclopentane-1-carboxamide]
16.1 | C[C@@H]1COCCN1c1cc(C2(S(C)(=O)=O)CC2)c2snc(-c3ccn[nH]3)c2n1 [Example 49, (R)-3-methyl-4-(7-(1-(methylsulfonyl)cyclopropyl)-3-(1H-pyrazol-5-yl)isothiazolo[4,5-b]pyridin-5-yl)morpholine]
16 | C[C@@H]1COCCN1c1cc(C(C)(C)CO)c2snc(-c3ccn[nH]3)c2n1 [Example 100, (R)-2-methyl-2-(5-(3-methylmorpholino)-3-(1H-pyrazol-5-yl)isothiazolo[4,5-b]pyridin-7-yl)propan-1-ol]
15 | CCn1nncc1-c1cc(N2CCOC[C@H]2C)nc2c(-c3cc(C)n[nH]3)nsc12 [Example 107, (3R)-4-[7-(1-ethyl-1H-1,2,3-triazol-5-yl)-3-(3-methyl-1H-pyrazol-5-yl)-[1,2]thiazolo[4,5-b]pyridin-5-yl]-3-methylmorpholine]
